US10287530B2, “Surfactants based on monounsaturated fatty alcohol derivatives” (priority 2013, dated 2019)
Like-named read-outs stand apart in the source and are kept apart here.

Legend:
[1] = system: zein, yellow corn (maize) protein
Procedure: The zein test is based on solubilization by surfactants of a yellow corn (maize) protein that is normally insoluble in water unless it is denatured. The test gravimetrically determines the amount of zein dissolved by a surfactant solution. The solubility of zein in surfactant solutions correlates well with skin irritation or roughness caused by the surfactant. […] A higher zein number corresponds to a greater degree of irritation.
A 1% actives solution of each test surfactant (120 mL) is prepared. The pH of each solution is adjusted to about 7.0 with dilute aq. sulfuric acid or dilute aq. sodium hydroxide. The surfactant solution is warmed to 45° C. Zein powder (1.50 g) is added to each of three jars. Surfactant (25.0 g of 1% actives solution) is added to each jar, and to one empty jar to be used as a blank. The solutions are mixed using magnetic stirring on a temperature-controlled hotplate at 45° C. for 60 min. Each mixture is then centrifuged (2500 rpm, 15 min.), and undissolved zein powder is isolated by vacuum filtration. The residue is washed with deionized water and dried (55° C., 24 h) to constant weight. The amount of undissolved zein protein is found gravimetrically, and the results from three runs are averaged to give the % of solubilized zein and zein number.

[2] = Interfacial tension (IFT) against light mineral oil, synergy study with cationic surfactant; type: physicochemical; settings: for IFT at 0.1% actives/mineral oil (blend): 1:1 molar blend of the anionic with Ammonyx Cetac 30, 0.1% actives, light mineral oil; for Calculated IFT (no synergy): expected IFT of the 1:1 molar blend with Ammonyx Cetac 30 by ideal mixing; for Synergy?: measured versus expected IFT of the 1:1 molar blend with Ammonyx Cetac 30; for IFT at 0.1% actives (single component): 0.1 wt. % active against light mineral oil, ambient temperature
Procedure: The surfactant blends tested are prepared at a 1:1 molar ratio without any pH adjustment. Dilutions are made using deionized water to the desired actives level. Actives amounts are wt. % unless indicated otherwise. Appearances are reported at ambient temperature for samples prepared within the last 24 h.
Interfacial tension (IFT) of all the individual components and their blends is measured at 0.1 wt. % active against light mineral oil at ambient temperature using a Kruss DSA-20 pendent drop tensiometer. The drop is blown out at 600 μL/min., and a video is recorded for 100 s. The video frames taken during the last 15 s are analyzed and used for the IFT calculation.
For blends having an IFT less than 0.5 mN/m, the IFT is determined using a spinning drop tensiometer (University of Texas 500) at 25° C. Oil density=0.877 g/cm^3 and surfactant density=0.997 g/cm^3 are used for the IFT calculation.
The expected IFT for a blend is calculated based on ideal mixing (non-synergistic) using the active component in each blend. The equation used is given as: Expected IFT=X*IFTa+(1−X)*IFTb where X is the actives % of component A, IFTa is the IFT of component A, and IFTb is the IFT of component B. If the measured IFT for a blend is less than the expected IFT, then the blend is synergistic. If the measured IFT for a blend is higher than the expected IFT, the system is antagonistic.

Substance | % solubilized zein ([1]; 1% actives solution, pH about 7.0, 45° C., 60 min, average of three runs) | zein number ([1]; relative to 1% actives Stepanol WA-Extra PCK (SLS) control = 100, higher = more irritating, average of three runs) | IFT at 0.1% actives/mineral oil (blend) [2] | Calculated IFT (no synergy) [2] | Synergy? [2] | IFT at 0.1% actives (single component) [2] | % solubilized zein [1] | zein number [1]
Undecylenic Alcohol, 1EO Ether Sulfate, Sodium Salt [Unsat. C11 alcohol 1EO Na sulfate] | 8.3% | 16.7 | 0.13 mN/m | 3.27 mN/m | very high | 6.18 mN/m |  | 
1-Undecanol, 1EO Ether Sulfate, Sodium Salt [Sat. C11 alcohol 1EO Na sulfate] |  |  | 0.23 mN/m | 6.44 mN/m | very high | 12.52 mN/m | 33.7% | 68.0
